According to US20150045610A1, “METHOD OF MODIFYING SPERMATOGENESIS, SPERMIOGENESIS AND/OR FERTILITY IN MAMMALS” (Monell Chemical Senses Center, priority 2012, published 2015):
“Also recorded” adds a separate entry of the source. Like-named read-outs stand apart in the source and are kept apart here.

Experiments:
human T1R3 receptor = target: T1, human T1R3 receptor (Homo sapiens, UniProt Q7RTX0); assay: sweet receptor inhibition assay (receptor activated with 2.5 mM sucralose); assay type: cell-based
T1 construct: expressed in transfected cells
T1 sequence (Q7RTX0 21-852): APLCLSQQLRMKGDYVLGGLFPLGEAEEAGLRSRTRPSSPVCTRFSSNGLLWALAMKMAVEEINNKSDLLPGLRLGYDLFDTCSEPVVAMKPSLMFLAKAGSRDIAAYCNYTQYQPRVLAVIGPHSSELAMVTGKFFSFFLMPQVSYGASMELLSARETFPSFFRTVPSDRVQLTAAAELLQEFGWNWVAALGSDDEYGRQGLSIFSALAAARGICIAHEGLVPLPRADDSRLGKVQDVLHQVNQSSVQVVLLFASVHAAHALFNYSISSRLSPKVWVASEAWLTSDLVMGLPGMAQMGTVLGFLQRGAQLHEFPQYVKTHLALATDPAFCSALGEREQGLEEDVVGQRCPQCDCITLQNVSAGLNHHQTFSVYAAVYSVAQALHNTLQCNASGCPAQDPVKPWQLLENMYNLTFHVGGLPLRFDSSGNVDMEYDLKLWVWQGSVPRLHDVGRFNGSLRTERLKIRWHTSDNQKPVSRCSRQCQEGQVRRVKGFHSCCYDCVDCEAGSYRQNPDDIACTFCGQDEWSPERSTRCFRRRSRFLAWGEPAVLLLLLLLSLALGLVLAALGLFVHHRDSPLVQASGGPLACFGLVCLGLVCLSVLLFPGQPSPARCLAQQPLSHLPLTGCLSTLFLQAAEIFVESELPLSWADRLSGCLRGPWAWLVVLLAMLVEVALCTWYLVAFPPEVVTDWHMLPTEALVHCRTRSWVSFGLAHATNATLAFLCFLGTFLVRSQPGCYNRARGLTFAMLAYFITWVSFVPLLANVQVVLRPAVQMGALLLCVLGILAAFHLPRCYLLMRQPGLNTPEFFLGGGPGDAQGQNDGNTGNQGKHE
T1 sequence (Q8TE23 20-839 partner): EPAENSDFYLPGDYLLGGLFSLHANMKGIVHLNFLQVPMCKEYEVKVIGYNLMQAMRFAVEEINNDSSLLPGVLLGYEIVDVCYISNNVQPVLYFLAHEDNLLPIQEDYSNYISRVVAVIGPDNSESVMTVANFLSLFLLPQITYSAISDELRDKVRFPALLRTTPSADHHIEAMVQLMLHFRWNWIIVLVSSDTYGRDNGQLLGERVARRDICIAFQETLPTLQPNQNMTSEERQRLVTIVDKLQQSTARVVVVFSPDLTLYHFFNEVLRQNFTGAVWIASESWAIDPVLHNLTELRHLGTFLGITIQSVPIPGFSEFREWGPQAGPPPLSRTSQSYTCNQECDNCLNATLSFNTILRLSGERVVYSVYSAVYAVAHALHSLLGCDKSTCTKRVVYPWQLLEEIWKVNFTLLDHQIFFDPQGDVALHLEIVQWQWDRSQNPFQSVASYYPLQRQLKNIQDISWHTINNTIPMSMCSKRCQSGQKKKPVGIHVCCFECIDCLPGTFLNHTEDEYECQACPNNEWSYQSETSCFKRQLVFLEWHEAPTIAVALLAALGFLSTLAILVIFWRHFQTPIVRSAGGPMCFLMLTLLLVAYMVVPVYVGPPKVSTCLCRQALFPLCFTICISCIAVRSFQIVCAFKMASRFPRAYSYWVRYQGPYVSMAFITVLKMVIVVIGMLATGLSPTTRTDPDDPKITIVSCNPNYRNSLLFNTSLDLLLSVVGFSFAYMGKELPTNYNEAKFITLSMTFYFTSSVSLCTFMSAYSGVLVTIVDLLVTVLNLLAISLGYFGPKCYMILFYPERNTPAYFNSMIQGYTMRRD
Experimental: FIG. 1 is a bar graph showing human (h), mouse (m) and chimeric mouse/human (m/h) sweet receptors activated with 2.5 mM sucralose and assayed for inhibition by certain T1R3 inhibitors or controls, measured by DF/F in %.
Chimeric receptors of T1R3 contained the extracellular portion of human or mouse receptor and the transmembrane domain and C-terminal domain from mouse or human receptor: mh indicates the presence of the mouse extracellular domain and human transmembrane domain; hm indicates the presence of the human extracellular domain and mouse transmembrane domain.

sperm = sperm motility in vitro; assay type: cell-based, mouse; conditions: sperm of WT and mutant mice, clofibric acid in media (2 mM elsewhere in the source)
Excerpt: We observed spermatozoa after clofibrate treatment represent cells that were able to escape the inhibition of clofibric acid, most likely due to very fast clearance and fluctuating levels in rodents. This allows some tubular cells to complete the developmental cycle. Therefore, we measured sperm concentration as an indicator of efficiency of the pharmacological block and to be able to determine the concentration that results in effective sterility. We analyzed testicular morphology, sperm production, sperm motility and sperm function in in vitro fertilization after feeding these animals with the lipid lowering drug clofibrate. We tested an acute inhibition of sperm motility and function in vitro by incubating sperm from the engineered mice (mGus−/−, mT1R3−/−, hmT1R3+) in solutions containing clofibric acid or other T1R3 inhibitors. The concentration used was similar to the one used in human treatment with fibrates (˜0.03 g/kg weight, for 3 weeks). We tested sperm motility and function in vitro of the Gα-gustducin KO mice (missing only the Gα-gustducin gene (mGus−/−)) after blocking T1R3 receptors with the rodent specific inhibitor gurmarin (3 mg/ml).
We evaluated the residual sperm that was produced by the line 7c mice in more detail. […] From all the above results, the combined lack of T1R3 and α-gustducin exerted its effect primarily at the level of developing spermatocytes in testis.

Compound: CC(C)(Oc1ccc(Cl)cc1)C(=O)O [clofibric acid]
- IC50 (human T1R3 receptor; read-out: IC50, block of the T1R3 receptor): 28 µM
- IC50 (human T1R3 receptor; read-out: IC50 values, human T1R3 inhibitors): 0.028 µM
- sperm motility (sperm): no differences; also recorded: not affected
